Data reported in patent publication US12152011B2, “Usnic acid derivative having TSLP secretion inhibitory ability and use thereof” (SEOUL NATIONAL UNIVERSITY HOSPITAL, priority 2018, dated 2024).

Columns and labels:
[1] = tested on: TSLP gene; test: qRT-PCR of TSLP gene expression in TNF-a stimulated HaCaT cells; assay type: cell-based, human; conditions: TNF-a stimulation, UA-CA treatment, FIG. 2
[2] = tested on: hypertrophic scar; test: Scar alleviation in rabbit ear hypertrophic scar model (biopsy, H&E histology); assay type: in vivo
Description: In order to confirm the efficacy of Usnic acid derivatives in relieving hypertrophic scars, the degree of scar relief by UA-CA treatment in hypertrophic scar samples was confirmed through histological comparison and pathological examination of skin tissue after biopsy.
A total of 4 rabbits weighing 3.5 kg (N2W conventional, female, 30 weeks old) were reared for a week in an environment of 21±1° C. 12-hour light/dark cycle, and the experiment was carried out. After anesthesia by intravenous administration of ketamine (60 mg/kg)+xylazine (5 mg/kg), both ears of the rabbit were sufficiently sterilized with betadine, and 5 wounds each with a diameter of 6 mm were made with a biopsy punch and a neck collar was applied. Management and supervision were made to become a hypertrophic scar model for 2 weeks after wound surgery. After confirming the hypertrophic scar model, the test material was treated twice a week for 2 weeks (untreated hypertrophic scar sample (Control), hypertrophic scar sample treated with 1, 5, and 10 mM UA-CA, 100 Thickening scar samples treated with ug/ml tranilast). After 2 weeks, visual evaluation and biopsy of the wound area were performed, followed by H&E staining, and then the changes in epidermal thickness were compared at 200 times and 400 times under a microscope.

[3] = tested on: IL-25 gene; test: qRT-PCR of IL-25 gene expression in TNF-a stimulated HaCaT cells; assay type: cell-based, human; conditions: TNF-a stimulation, UA-CA treatment, FIG. 5
[4] = tested on: IL-1β gene; test: qRT-PCR of IL-1β gene expression in TNF-a stimulated HaCaT cells; assay type: cell-based, human; conditions: TNF-a stimulation, UA-CA treatment, FIG. 3
[5] = tested on: IL-31 gene; test: qRT-PCR of IL-31 gene expression in TNF-a stimulated HaCaT cells; assay type: cell-based, human; conditions: TNF-a stimulation, UA-CA treatment, FIG. 6
[6] = tested on: IL-13 gene; test: qRT-PCR of IL-13 gene expression in TNF-a stimulated HaCaT cells; assay type: cell-based, human; conditions: TNF-a stimulation, UA-CA treatment, FIG. 4

C=C(OC(=O)/C=C/c1ccccc1)C1=C(OC(=O)/C=C/c2ccccc2)C=C2Oc3c(C(C)=O)c(O)c(C)c(O)c3[C@@]2(C)C1=O [UA-CA]
expression level of the TSLP gene (mRNA, relative to 36B4) [1]: dependently decreased | scar relief compared with positive control tranilast ([2]; 10 mM UA-CA vs 100 ug/ml tranilast, twice a week for 2 weeks): better scar relief efficacy | scar relief compared to the untreated hypertrophic scar ([2]; UA-CA 1, 5, 10 mM, twice a week for 2 weeks, FIGS. 7A-7E): scar relief was more advanced | thickness of the epidermis compared to the untreated thickening scar ([2]; UA-CA-treated sample, H&E staining, FIGS. 8A-8E): became thinner | expression level of the IL-25 gene (mRNA, relative to 36B4) [3]: dependently decreased | expression level of the IL-1β gene (mRNA, relative to 36B4) [4]: dependently decreased | expression level of the IL-31 gene (mRNA, relative to 36B4) [5]: dependently decreased | expression level of the IL-13 gene (mRNA, relative to 36B4) [6]: dependently decreased
